Measurements reported in patent US20230150974A1 (Foghorn Therapeutics Inc., priority 2020, published 2023).

Experiments:
[1] = target: T1, HiBit-BRG1 (Homo sapiens, UniProt P51532); experiment: HiBit-BRG1 cell-based degradation assay (Nano-Glo HiBiT Lytic Detection); conditions: HeLa cells expressing HiBit-BRG1 and LgBit, 24 h; for DC50: read-out: BRG1 HiBit Degradation IC50; for Dmax: read-out: BRG1 HiBit Degradation Maximum (%)
T1 construct: expressed in transfected cells
Method in brief: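 HeLa cells stably expressing HiBiT-BRG1 plus LgBit, 5000/well, treated 24 h, then lysed with Nano-Glo HiBiT lytic reagent and luminescence read. % degradation normalised between DMSO (high control) and 2 μM reference BRM/BRG1 degrader (low control).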

[2] = target: T2, HiBiT-BRM (Homo sapiens, UniProt P51531); experiment: HiBiT-BRM cell-based degradation assay (Nano-Glo HiBiT Lytic Detection); conditions: HeLa cells expressing HiBiT-BRM, 24 h; for DC50: read-out: BRM HiBit Degradation IC50
T2 construct: expressed in transfected cells
T2 sequence (P51531 whole entry): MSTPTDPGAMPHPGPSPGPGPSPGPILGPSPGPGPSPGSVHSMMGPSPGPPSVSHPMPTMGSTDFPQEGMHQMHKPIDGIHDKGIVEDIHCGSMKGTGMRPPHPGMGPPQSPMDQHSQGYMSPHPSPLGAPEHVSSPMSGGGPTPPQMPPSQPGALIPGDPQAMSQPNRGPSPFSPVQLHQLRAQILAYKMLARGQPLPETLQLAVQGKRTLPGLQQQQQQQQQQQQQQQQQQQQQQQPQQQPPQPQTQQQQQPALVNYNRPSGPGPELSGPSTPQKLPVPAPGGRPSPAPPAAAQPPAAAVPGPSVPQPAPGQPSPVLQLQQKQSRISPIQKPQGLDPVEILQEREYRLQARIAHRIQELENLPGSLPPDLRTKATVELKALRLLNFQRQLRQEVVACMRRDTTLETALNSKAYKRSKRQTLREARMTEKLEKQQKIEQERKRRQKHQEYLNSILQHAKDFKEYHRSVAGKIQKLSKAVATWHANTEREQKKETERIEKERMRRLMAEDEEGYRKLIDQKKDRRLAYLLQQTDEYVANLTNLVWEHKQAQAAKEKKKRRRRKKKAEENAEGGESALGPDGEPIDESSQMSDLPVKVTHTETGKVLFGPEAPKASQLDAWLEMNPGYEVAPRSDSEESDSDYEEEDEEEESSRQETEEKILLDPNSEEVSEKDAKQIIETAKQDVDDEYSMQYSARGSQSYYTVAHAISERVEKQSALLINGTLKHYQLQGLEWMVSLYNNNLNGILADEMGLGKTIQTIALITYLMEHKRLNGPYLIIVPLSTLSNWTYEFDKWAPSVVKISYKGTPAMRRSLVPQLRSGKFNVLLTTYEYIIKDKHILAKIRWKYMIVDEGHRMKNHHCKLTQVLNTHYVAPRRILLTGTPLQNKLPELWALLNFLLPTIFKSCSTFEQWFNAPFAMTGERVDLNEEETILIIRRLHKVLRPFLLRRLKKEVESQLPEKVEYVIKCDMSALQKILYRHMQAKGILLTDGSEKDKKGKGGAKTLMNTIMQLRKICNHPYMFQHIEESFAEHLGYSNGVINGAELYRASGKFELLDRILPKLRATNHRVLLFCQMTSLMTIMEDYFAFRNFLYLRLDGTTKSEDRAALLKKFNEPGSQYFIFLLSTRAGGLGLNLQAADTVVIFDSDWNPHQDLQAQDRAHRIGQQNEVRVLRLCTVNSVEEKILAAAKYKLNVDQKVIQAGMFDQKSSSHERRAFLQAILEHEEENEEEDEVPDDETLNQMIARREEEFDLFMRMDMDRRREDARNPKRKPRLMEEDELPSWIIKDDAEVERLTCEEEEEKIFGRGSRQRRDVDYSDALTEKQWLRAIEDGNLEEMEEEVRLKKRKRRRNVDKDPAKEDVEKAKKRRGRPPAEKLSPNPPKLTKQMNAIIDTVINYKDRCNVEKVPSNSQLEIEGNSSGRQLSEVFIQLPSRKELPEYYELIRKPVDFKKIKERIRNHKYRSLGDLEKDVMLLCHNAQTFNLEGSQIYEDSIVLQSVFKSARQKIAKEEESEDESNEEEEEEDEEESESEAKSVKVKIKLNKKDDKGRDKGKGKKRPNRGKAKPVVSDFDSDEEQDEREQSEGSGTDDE
Method in brief: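 HeLa cells stably expressing HiBiT-tagged BRM were treated for 24 h, then lysed with LgBiT-containing Nano-Glo reagent and luminescence read. % degradation scaled between DMSO (high control) and 2 μM reference BRM/BRG1 degrader (low control).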

T1 sequence (P51532 whole entry): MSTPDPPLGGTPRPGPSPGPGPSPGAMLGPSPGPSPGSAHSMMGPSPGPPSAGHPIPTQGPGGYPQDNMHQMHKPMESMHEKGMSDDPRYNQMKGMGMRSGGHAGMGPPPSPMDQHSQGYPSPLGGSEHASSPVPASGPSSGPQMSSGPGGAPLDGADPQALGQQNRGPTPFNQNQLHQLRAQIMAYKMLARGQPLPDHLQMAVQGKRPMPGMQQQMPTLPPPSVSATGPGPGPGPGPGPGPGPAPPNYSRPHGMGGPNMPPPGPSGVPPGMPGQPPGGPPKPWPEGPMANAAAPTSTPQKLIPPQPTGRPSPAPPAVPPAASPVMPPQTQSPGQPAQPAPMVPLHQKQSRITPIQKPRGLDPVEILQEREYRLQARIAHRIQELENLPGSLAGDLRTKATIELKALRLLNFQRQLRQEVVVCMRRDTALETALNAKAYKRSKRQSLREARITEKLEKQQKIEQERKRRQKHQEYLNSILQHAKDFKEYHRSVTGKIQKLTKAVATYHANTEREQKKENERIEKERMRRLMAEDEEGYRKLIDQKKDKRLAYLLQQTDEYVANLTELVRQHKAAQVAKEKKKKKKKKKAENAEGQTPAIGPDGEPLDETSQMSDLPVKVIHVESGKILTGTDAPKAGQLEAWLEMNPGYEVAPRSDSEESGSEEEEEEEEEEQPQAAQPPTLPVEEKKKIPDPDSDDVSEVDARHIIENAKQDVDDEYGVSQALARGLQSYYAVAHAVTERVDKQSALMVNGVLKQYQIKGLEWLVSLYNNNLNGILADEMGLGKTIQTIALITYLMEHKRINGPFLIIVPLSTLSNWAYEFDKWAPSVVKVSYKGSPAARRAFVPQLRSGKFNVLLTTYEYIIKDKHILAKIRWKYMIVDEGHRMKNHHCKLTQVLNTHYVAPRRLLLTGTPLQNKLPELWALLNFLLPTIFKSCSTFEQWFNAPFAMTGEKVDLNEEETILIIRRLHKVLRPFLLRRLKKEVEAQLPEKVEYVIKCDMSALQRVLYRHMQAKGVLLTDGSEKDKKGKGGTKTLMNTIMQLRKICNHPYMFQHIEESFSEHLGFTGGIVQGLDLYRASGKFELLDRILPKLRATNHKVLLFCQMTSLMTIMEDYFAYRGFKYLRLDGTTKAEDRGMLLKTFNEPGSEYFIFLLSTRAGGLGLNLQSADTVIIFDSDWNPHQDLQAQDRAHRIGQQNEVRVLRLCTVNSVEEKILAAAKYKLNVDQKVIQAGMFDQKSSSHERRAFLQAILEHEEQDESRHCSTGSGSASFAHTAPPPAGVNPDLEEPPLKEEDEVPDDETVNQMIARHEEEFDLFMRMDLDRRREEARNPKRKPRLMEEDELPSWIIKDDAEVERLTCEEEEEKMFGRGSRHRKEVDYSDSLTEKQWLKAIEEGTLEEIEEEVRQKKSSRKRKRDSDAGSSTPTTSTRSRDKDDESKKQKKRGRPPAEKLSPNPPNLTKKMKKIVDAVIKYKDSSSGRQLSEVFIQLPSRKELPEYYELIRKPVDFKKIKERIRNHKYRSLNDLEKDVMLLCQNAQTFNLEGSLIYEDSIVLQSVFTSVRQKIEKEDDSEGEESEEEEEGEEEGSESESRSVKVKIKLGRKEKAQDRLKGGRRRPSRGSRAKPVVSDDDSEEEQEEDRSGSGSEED

Structure (SMILES)	DC50 [1] [nM]	Dmax [1] [%]	BRM HiBit Degradation Maximum (%) [2]	DC50 [2] [nM]
Nc1nnc(-c2ccccc2O)cc1OCCc1ccc(C(=O)NCCS(=O)(=O)CCNc2cccc3c2C(=O)N(C2CCC(=O)NC2=O)C3=O)cc1 (stereo not drawn) [Compound 55, 4-(2-[[3-amino-6-(2-hydroxyphenyl)pyridazin-4-yl]oxy]ethyl)-N-[2-(2-[[2-(2,6-dioxopiperidin-3-yl)-1,3-dioxoisoindol-4-yl]amino]ethanesulfonyl)ethyl]benzamide]	> 1000	< 50	C (“C” indicates maximum degradation <50%)	> 1000
Nc1nnc(-c2ccccc2O)cc1OCCc1ccc(C(=O)NCCCCCCCCNc2cccc3c2CN(C2CCC(=O)NC2=O)C3=O)cc1 (stereo not drawn) [Compound 56]	> 1000	< 50	C (“C” indicates maximum degradation <50%)	> 1000
Cc1ncsc1-c1ccc(CNC(=O)[C@@H]2C[C@@H](O)CN2C(=O)[C@@H](NC(=O)CCCCCCCNC(=O)c2ccc(CCOc3cc(-c4ccccc4O)nnc3N)cc2)C(C)(C)C)cc1 [Compound 57, (2S,4R)-1-[(2S)-2-(8-[[4-(2-[[3-amino-6-(2-hydroxyphenyl)pyridazin-4-yl]oxy]ethyl)phenyl]formamido]octanamido)-3,3-dimethylbutanoyl]-4-hydroxy-N-[[4-(4-methyl-1,3-thiazol-5-yl)phenyl]methyl]pyrrolidine-2-carboxamide]	> 1000	< 50	B (“B” indicates maximum degradation ≥50%)	> 100
CN(CCNC(=O)COc1cccc2c1C(=O)N(C1CCC(=O)NC1=O)C2=O)CCNC(=O)c1ccc(CCOc2cc(-c3ccccc3O)nnc2N)cc1 (stereo not drawn) [Compound 58, N-[2-[(2-[[4-(2-[[3-amino-6-(2-hydroxyphenyl)pyridazin-4-yl]oxy]ethyl)phenyl]formamido]ethyl)(methyl)amino]ethyl]-2-[[2-(2,6-dioxopiperidin-3-yl)-1,3-dioxoisoindol-4-yl]oxy]acetamide]	> 1000	< 50	C (“C” indicates maximum degradation <50%)	> 1000
CN(CCNC(=O)c1ccc(CCOc2cc(-c3ccccc3O)nnc2N)cc1)CCNc1cccc2c1C(=O)N(C1CCC(=O)NC1=O)C2=O (stereo not drawn) [Compound 61, 4-(2-[[3-amino-6-(2-hydroxyphenyl)pyridazin-4-yl]oxy]ethyl)-N-[2-[(2-[[2-(2,6-dioxopiperidin-3-yl)-1,3-dioxoisoindol-4-yl]amino]ethyl)(methyl)amino]ethyl]benzamide]	> 1000	< 50	B (“B” indicates maximum degradation ≥50%)	> 100
Nc1nnc(-c2ccccc2O)cc1OCCc1ccc(CNC(=O)COc2cccc3c2C(=O)N(C2CCC(=O)NC2=O)C3=O)cc1 (stereo not drawn) [Compound 62, N-[[4-(2-[[3-amino-6-(2-hydroxyphenyl)pyridazin-4-yl]oxy]ethyl)phenyl]methyl]-2-[[2-(2,6-dioxopiperidin-3-yl)-1,3-dioxoisoindol-4-yl]oxy]acetamide]	> 100	> 50	C (“C” indicates maximum degradation <50%)	> 1000
Nc1nnc(-c2ccccc2O)cc1OCCc1ccc(CNC(=O)CCCCCOc2cccc3c2C(=O)N(C2CCC(=O)NC2=O)C3=O)cc1 (stereo not drawn) [Compound 63, N-[[4-(2-[[3-amino-6-(2-hydroxyphenyl)pyridazin-4-yl]oxy]ethyl)phenyl]methyl]-6-[[2-(2,6-dioxopiperidin-3-yl)-1,3-dioxoisoindol-4-yl]oxy]hexanamide]	> 1000	< 50	B (“B” indicates maximum degradation ≥50%)	> 100
Nc1nnc(-c2ccccc2O)cc1OCCc1ccc(C(=O)NCCCCCCCCNc2ccc3c(c2)C(=O)N(C2CCC(=O)NC2=O)C3=O)cc1 (stereo not drawn) [Compound 64, 4-(2-[[3-amino-6-(2-hydroxyphenyl)pyridazin-4-yl]oxy]ethyl)-N-(8-[[2-(2,6-dioxopiperidin-3-yl)-1,3-dioxoisoindol-5-yl]amino]octyl)benzamide]	> 1000	< 50	C (“C” indicates maximum degradation <50%)	> 1000
Nc1nnc(-c2ccccc2O)cc1OCCc1ccc(CNC(=O)CCCOc2cccc3c2C(=O)N(C2CCC(=O)NC2=O)C3=O)cc1 (stereo not drawn) [Compound 65, N-[[4-(2-[[3-amino-6-(2-hydroxyphenyl)pyridazin-4-yl]oxy]ethyl)phenyl]methyl]-4-[[2-(2,6-dioxopiperidin-3-yl)-1,3-dioxoisoindol-4-yl]oxy]butanamide]	> 1000	< 50	C (“C” indicates maximum degradation <50%)	> 1000
Nc1nnc(-c2ccccc2O)cc1OCCc1ccc(CNC(=O)CCCCCCCCCCNc2ccc3c(c2)C(=O)N(C2CCC(=O)NC2=O)C3=O)cc1 (stereo not drawn) [Compound 66]	> 1000	< 50	C (“C” indicates maximum degradation <50%)	> 1000
Nc1nnc(-c2ccccc2O)cc1OCCc1ccc(CNC(=O)CCCCOc2cccc3c2C(=O)N(C2CCC(=O)NC2=O)C3=O)cc1 (stereo not drawn) [Compound 67, N-[[4-(2-[[3-amino-6-(2-hydroxyphenyl)pyridazin-4-yl]oxy]ethyl)phenyl]methyl]-5-[[2-(2,6-dioxopiperidin-3-yl)-1,3-dioxoisoindol-4-yl]oxy]pentanamide]	> 1000	< 50	A (“A” indicates maximum degradation ≥75%)	> 100
Nc1nnc(-c2ccccc2O)cc1OCCc1ccc(CNC(=O)CCCCCCCOc2cccc3c2C(=O)N(C2CCC(=O)NC2=O)C3=O)cc1 (stereo not drawn) [Compound 69, N-[[4-(2-[[3-amino-6-(2-hydroxyphenyl)pyridazin-4-yl]oxy]ethyl)phenyl]methyl]-8-[[2-(2,6-dioxopiperidin-3-yl)-1,3-dioxoisoindol-4-yl]oxy]octanamide]	> 1000	< 50	C (“C” indicates maximum degradation <50%)	> 1000
Nc1nnc(-c2ccccc2O)cc1OCCc1ccc(CNC(=O)CCOCCOCCNc2ccc3c(c2)C(=O)N(C2CCC(=O)NC2=O)C3=O)cc1 (stereo not drawn) [Compound 70, N-[[4-(2-[[3-amino-6-(2-hydroxyphenyl)pyridazin-4-yl]oxy]ethyl)phenyl]methyl]-3-[2-(2-[[2-(2,6-dioxopiperidin-3-yl)-1,3-dioxoisoindol-5-yl]amino]ethoxy)ethoxy]propanamide]	> 1000	< 50	C (“C” indicates maximum degradation <50%)	> 1000
Nc1nnc(-c2ccccc2O)cc1OCCc1ccc(CNC(=O)CCCCCCCCNc2cccc3c2C(=O)N(C2CCC(=O)NC2=O)C3=O)cc1 (stereo not drawn) [Compound 71, N-[[4-(2-[[3-amino-6-(2-hydroxyphenyl)pyridazin-4-yl]oxy]ethyl)phenyl]methyl]-9-[[2-(2,6-dioxopiperidin-3-yl)-1,3-dioxoisoindol-4-yl]amino]nonanamide]	> 1000	< 50	C (“C” indicates maximum degradation <50%)	> 1000
Nc1nnc(-c2ccccc2O)cc1OCCc1ccc(CNC(=O)CCCCCCCCCCNc2cccc3c2C(=O)N(C2CCC(=O)NC2=O)C3=O)cc1 (stereo not drawn) [Compound 72]	> 1000	< 50	C (“C” indicates maximum degradation <50%)	> 1000
Nc1nnc(-c2ccccc2O)cc1OCCc1ccc(CNC(=O)CCCCCCCCNc2ccc3c(c2)C(=O)N(C2CCC(=O)NC2=O)C3=O)cc1 (stereo not drawn) [Compound 73, N-(4-(2-((3-amino-6-(2-hydroxyphenyl)pyridazin-4-yl)oxy)ethyl)benzyl)-9-((2-(2,6-dioxopiperidin-3-yl)-1,3-dioxoisoindolin-5-yl)amino)nonanamide]	> 1000	< 50	C (“C” indicates maximum degradation <50%)	> 1000
Nc1nnc(-c2ccccc2O)cc1OCCc1ccc(CNC(=O)CCOCCOCCNc2cccc3c2C(=O)N(C2CCC(=O)NC2=O)C3=O)cc1 (stereo not drawn) [Compound 74, N-(4-(2-((3-amino-6-(2-hydroxyphenyl)pyridazin-4-yl)oxy)ethyl)benzyl)-3-(2-(2-((2-(2,6-dioxopiperidin-3-yl)-1,3-dioxoisoindolin-4-yl)amino)ethoxy)ethoxy)propanamide]	> 1000	< 50	C (“C” indicates maximum degradation <50%)	> 1000
Nc1nnc(-c2ccccc2O)cc1OCCc1ccc(CNC(=O)CCCCCCCCCNc2ccc3c(c2)C(=O)N(C2CCC(=O)NC2=O)C3=O)cc1 (stereo not drawn) [Compound 75, N-(4-(2-((3-amino-6-(2-hydroxyphenyl)pyridazin-4-yl)oxy)ethyl)benzyl)-10-((2-(2,6-dioxopiperidin-3-yl)-1,3-dioxoisoindolin-5-yl)amino)decanamide]	> 1000		C (“C” indicates maximum degradation <50%)	> 1000
Nc1nnc(-c2ccccc2O)cc1N1CCN(CC(=O)N2CC(COc3cccc4c3C(=O)N(C3CCC(=O)NC3=O)C4=O)C2)CC1 (stereo not drawn) [Compound 76, 4-[[1-(2-[4-[3-amino-6-(2-hydroxyphenyl)pyridazin-4-yl]piperazin-1-yl]acetyl)azetidin-3-yl]methoxy]-2-(2,6-dioxopiperidin-3-yl)isoindole-1,3-dione]	> 1000	< 50	C (“C” indicates maximum degradation <50%)	> 1000
